Measurements as given in US5527781A, “4-O-(aminoglycosyl)- or 4,6-di-O-(aminoglycosyl)-2,5-dideoxy-5,5-difluorostreptamine derivatives” (Zaidan Hojin Biseibutsu Kagaku Kenkyu Kai, priority 1990, dated 1996).
Converted amounts (≈) assume the structure as drawn. Like-named read-outs stand apart in the source and are kept apart here.

Assays:
[1] = test system: Staphylococcus aureus 209P; assay: MIC, standard serial dilution method; format: cell-based; conditions: Mueller-Hinton agar, 37° C
[2] = test system: Staphylococcus aureus Ap01; assay: MIC, standard serial dilution method; format: cell-based; conditions: resistance mechanism ANT(4'), Mueller-Hinton agar, 37° C
Bacillus subtilis PCI219 = assay: MIC, standard serial dilution method; format: cell-based; conditions: Mueller-Hinton agar, 37° C
[3] = test system: Corynebacterium bovis 1810; assay: MIC, standard serial dilution method; format: cell-based; conditions: Mueller-Hinton agar, 37° C
Escherichia coli K-12 = assay: MIC, standard serial dilution method; format: cell-based; conditions: K12; Escherichia coli K-12; Mueller-Hinton agar, 37° C; read-out: MIC
Escherichia coli K-12 R5 = assay: microbe, parasite or virus in culture; format: cell-based; conditions: K12R5
[4] = test system: Escherichia coli K-12 ML 1629; assay: microbe, parasite or virus in culture; format: cell-based; conditions: K12ML1629
[5] = test system: Escherichia coli K-12 LA 290 R55; assay: microbe, parasite or virus in culture; format: cell-based; conditions: K12LA290R55; Escherichia coli K-12 LA 290 R55; resistance mechanism ANT(2"); Mueller-Hinton agar, 37° C
Escherichia coli JR225 = assay: microbe, parasite or virus in culture; format: cell-based; conditions: resistance mechanism AAC(3), Mueller-Hinton agar, 37° C
[6] = test system: Escherichia coli JR66/W677; assay: microbe, parasite or virus in culture; format: cell-based; conditions: resistance mechanism APH(3')-II, ANT(2"), Mueller-Hinton agar, 37° C
Mycobacterium 607 = assay: MIC, standard serial dilution method; format: cell-based; conditions: Mueller-Hinton agar, 37° C
[7] = test system: Klebsiella pneumoniae 22#3038; assay: MIC, standard serial dilution method; format: cell-based; conditions: resistance mechanism APH(3')-II, ANT(2"), Mueller-Hinton agar, 37° C
Proteus rettgeri GN 311 = assay: MIC, standard serial dilution method; format: cell-based; conditions: Providencia rettgeri, GN311
Serratia marcescens = assay: MIC, standard serial dilution method; format: cell-based; conditions: Mueller-Hinton agar, 37° C
Providencia sp. Pv 16 = assay: MIC, standard serial dilution method; format: cell-based; conditions: SP.PV16, resistance mechanism AAC(2'), Mueller-Hinton agar, 37° C
[8] = test system: Pseudomonas aeruginosa A3; assay: MIC, standard serial dilution method; format: cell-based; conditions: Mueller-Hinton agar, 37° C
[9] = test system: Pseudomonas aeruginosa GN 315; assay: MIC, standard serial dilution method; format: cell-based; conditions: GN315; Pseudomonas aeruginosa GN 315; resistance mechanism AAC(6'); Mueller-Hinton agar, 37° C; read-out: MIC
in vivo = conditions: mouse, iv, pH 7
From the text: Further, in order to estimate acute toxicity of the compound of the general formula (I) according to this invention, some examples of the compounds of this invention were independently dissolved in water to prepare aqueous solutions (as adjusted to pH 7 by addition of hydrochloric acid). […] The tested compounds of this invention are expressed by the same abbreviations as in Table 1. […] The comparative compounds as tested are also expressed by the same abbreviations as in Table 1.

[10] = Escherichia coli K-12 ML 1629, resistance mechanism APH(3')-I, Mueller-Hinton agar, 37° C, read-out: MIC
[11] = Escherichia coli K-12 R5, resistance mechanism AAC(6'), Mueller-Hinton agar, 37° C
[12] = Proteus rettgeri GN 311, Mueller-Hinton agar, 37° C, read-out: MIC

| Compound | MIC [1] | MIC [2] | MIC (Bacillus subtilis PCI219) | MIC [3] | MIC (Escherichia coli K-12) | MIC [4, 10] | MIC [5] | MIC (Escherichia coli JR225) | MIC [6] | MIC (Mycobacterium 607) | MIC [7] | MIC (Serratia marcescens) | MIC (Providencia sp. Pv 16) | MIC [8] | MIC [9] | LD50 (in vivo) | MIC (Escherichia coli K-12 R5; [11]) | MIC (Proteus rettgeri GN 311; [12]) | other results |
| --- | --- | --- | --- | --- | --- | --- | --- | --- | --- | --- | --- | --- | --- | --- | --- | --- | --- | --- | --- |
| CN[C@@H]1[C@@H](O)[C@@H](O[C@@H]2[C@@H](O)[C@H](O[C@H]3O[C@H]([C@@H](C)NC)CC[C@H]3N)[C@@H](N)C[C@H]2N)OC[C@]1(C)O [Genta-C1, gentamicin C1, reference compound] | < 0.2 µg/mL | 0.78 µg/mL (≈ 1.63 µM) | < 0.2 µg/mL | 0.39 µg/mL (≈ 0.817 µM) | 0.2 µg/mL (≈ 0.419 µM) | 0.39 µg/mL (≈ 0.817 µM) | 12.5 µg/mL (≈ 26.2 µM) | 25 µg/mL (≈ 52.3 µM) | 12.5 µg/mL (≈ 26.2 µM) | 3.12 µg/mL (≈ 6.53 µM) | 12.5 µg/mL (≈ 26.2 µM) | 0.78 µg/mL (≈ 1.63 µM) | 25 µg/mL (≈ 52.3 µM) | 0.78 µg/mL (≈ 1.63 µM) | 6.25 µg/mL (≈ 13.1 µM) | ~70 mg/kg | – | – | MIC (Escherichia coli K-12 R5; Escherichia coli): 0.78 µg/mL (≈ 1.63 µM); MIC (Proteus rettgeri GN 311): 0.78 µg/mL (≈ 1.63 µM) |
| CN[C@@H]1[C@@H](O)[C@@H](O[C@@H]2[C@@H](O)[C@H](O[C@H]3O[C@H]([C@@H](C)N)CC[C@H]3N)[C@@H](N)C[C@H]2N)OC[C@]1(C)O [Genta-C2, gentamicin C2, reference compound] | < 0.2 µg/mL | 0.78 µg/mL (≈ 1.68 µM) | < 0.2 µg/mL | 0.39 µg/mL (≈ 0.841 µM) | < 0.2 µg/mL | 0.39 µg/mL (≈ 0.841 µM) | 12.5 µg/mL (≈ 27 µM) | 6.25 µg/mL (≈ 13.5 µM) | 25 µg/mL (≈ 53.9 µM) | 1.56 µg/mL (≈ 3.37 µM) | 12.5 µg/mL (≈ 27 µM) | 0.78 µg/mL (≈ 1.68 µM) | 6.25 µg/mL (≈ 13.5 µM) | 0.39 µg/mL (≈ 0.841 µM) | 3.12 µg/mL (≈ 6.73 µM) | ~90 mg/kg | 1.56 µg/mL (≈ 3.37 µM) | 0.2 µg/mL (≈ 0.431 µM) | – |
| NCC[C@H](O)C(=O)N[C@@H]1C[C@H](N)[C@@H](O[C@H]2O[C@H](CN)CC[C@H]2N)C(F)(F)[C@H]1O[C@H]1O[C@H](CO)[C@@H](O)[C@H](N)[C@H]1O [Compound 5FF-DKB-AHB, 1-N-[(S)-4-amino-2-hydroxybutyryl]-5,3',4'-trideoxy-5,5-difluorokanamycin B] | 0.39 µg/mL (≈ 0.681 µM) | 3.12 µg/mL (≈ 5.45 µM) | 0.39 µg/mL (≈ 0.681 µM) | < 0.2 µg/mL | < 0.2 µg/mL | 0.39 µg/mL (≈ 0.681 µM) | < 0.2 µg/mL | < 0.2 µg/mL | 0.39 µg/mL (≈ 0.681 µM) | 0.78 µg/mL (≈ 1.36 µM) | 0.78 µg/mL (≈ 1.36 µM) | 1.56 µg/mL (≈ 2.72 µM) | 0.78 µg/mL (≈ 1.36 µM) | 0.78 µg/mL (≈ 1.36 µM) | 12.5 µg/mL (≈ 21.8 µM) | ~200 mg/kg | 3.12 µg/mL (≈ 5.45 µM) | 0.39 µg/mL (≈ 0.681 µM) | – |
| NCC[C@H](O)C(=O)N[C@@H]1C[C@H](N)[C@@H](O[C@H]2O[C@H](CN)[C@@H](O)C[C@H]2N)C(F)(F)[C@H]1O[C@H]1O[C@H](CO)[C@@H](O)[C@H](N)[C@H]1O [Compound 5FF-TOB-AHB, 1-N-[(S)-4-amino-2-hydroxybutyryl]-5-deoxy-5,5-difluorotobramycin] | 0.39 µg/mL (≈ 0.663 µM) | 3.12 µg/mL (≈ 5.3 µM) | < 0.2 µg/mL | < 0.2 µg/mL | < 0.2 µg/mL | 0.39 µg/mL (≈ 0.663 µM) | < 0.2 µg/mL | < 0.2 µg/mL | 0.39 µg/mL (≈ 0.663 µM) | 0.39 µg/mL (≈ 0.663 µM) | 0.78 µg/mL (≈ 1.33 µM) | 1.56 µg/mL (≈ 2.65 µM) | 0.78 µg/mL (≈ 1.33 µM) | 0.78 µg/mL (≈ 1.33 µM) | 6.25 µg/mL (≈ 10.6 µM) | > 300 mg/kg | 3.12 µg/mL (≈ 5.3 µM) | 0.39 µg/mL (≈ 0.663 µM) | – |
| CCN[C@@H]1C[C@H](N)[C@@H](O[C@H]2OC(CN)=CC[C@H]2N)C(F)(F)[C@H]1O[C@H]1OC[C@](C)(O)[C@H](NC)[C@H]1O [5FF-Netilmicin, 5-deoxy-5,5-difluoronetilmicin] | 3.12 µg/mL (≈ 6.3 µM) | 12.5 µg/mL (≈ 25.2 µM) | 0.39 µg/mL (≈ 0.787 µM) | 1.56 µg/mL (≈ 3.15 µM) | < 0.2 µg/mL | – | 0.39 µg/mL (≈ 0.787 µM) | 1.56 µg/mL (≈ 3.15 µM) | 0.78 µg/mL (≈ 1.57 µM) | 1.56 µg/mL (≈ 3.15 µM) | 1.56 µg/mL (≈ 3.15 µM) | 6.25 µg/mL (≈ 12.6 µM) | 12.5 µg/mL (≈ 25.2 µM) | 1.56 µg/mL (≈ 3.15 µM) | > 100 µg/mL | 47 mg/kg | 50 µg/mL (≈ 101 µM) | 1.56 µg/mL (≈ 3.15 µM) | MIC ([4]; Escherichia coli): 0.78 µg/mL (≈ 1.57 µM) |
| CN[C@@H]1[C@@H](O)[C@@H](O[C@H]2[C@H](N)C[C@H](N)[C@@H](O[C@H]3O[C@H](CN)CC[C@H]3N)C2(F)F)OC[C@]1(C)O [5FF-Genta-C1a, 5-deoxy-5,5-difluorogentamicin C1a] | 0.78 µg/mL (≈ 1.66 µM) | 3.12 µg/mL (≈ 6.64 µM) | 0.39 µg/mL (≈ 0.831 µM) | 0.78 µg/mL (≈ 1.66 µM) | < 0.2 µg/mL | 0.39 µg/mL (≈ 0.831 µM) | 3.12 µg/mL (≈ 6.64 µM) | 3.12 µg/mL (≈ 6.64 µM) | 1.56 µg/mL (≈ 3.32 µM) | 0.78 µg/mL (≈ 1.66 µM) | 1.56 µg/mL (≈ 3.32 µM) | 6.25 µg/mL (≈ 13.3 µM) | 12.5 µg/mL (≈ 26.6 µM) | 0.78 µg/mL (≈ 1.66 µM) | 100 µg/mL (≈ 213 µM) | ~240 mg/kg | 12.5 µg/mL (≈ 26.6 µM) | 0.39 µg/mL (≈ 0.831 µM) | – |
